Values of other authors as cited in publication PMC10318822, “Phase 1 dose-escalation study to evaluate the safety, tolerability, pharmacokinetics, and anti-tumor activity of FCN-159 in adults with neurofibromatosis type 1-related unresectable plexiform neurofibromas” (BMC Medicine, 2023).

Design: method as in PMID 36113242
Conditions: patients with NRAS mut+ melanoma; cited from earlier work

In the case of Cn1c(=O)c(F)c(Nc2ccc(I)cc2F)c2c(=O)n(C3CC3)nc(-c3cccc(NS(=O)(=O)C4CC4)c3)c21 [FCN-159], the “Mean T1/2” value is given as 32 to 57 h.
